Measured values as given in patent EP0429304A2, “Pyridone-carboxylic acid derivatives and their use as veterinary medicines” (SHIONOGI SEIYAKU KABUSHIKI KAISHA trading under the name of …, priority 1989, dated 1991).

System: TS-resistant strain of MG
Type: in vivo, chicken
Details: in vivo, po

With CNC[C@@]12CCC[C@@H]1CN(c1c(F)cc3c(=O)c(C(=O)O)cn(C4CC4)c3c1Cl)C2.Cl (relative stereo) [I-11, 7-[(1R*,5S*)-1-methylaminomethyl-3-azabicyclo[3.3.0]octan-3-yl]-1-cyclopropyl-8-chloro-6-fluoro-1,4-dihydro-4-oxo-3-quinolinecarboxylic acid hydrochloride] the “antimicrobial activity compared with ERFX” value was “nearly equal potency to ERFX”.
